Experimental data taken from patent US4436918A, “Method for production of peptide, and its intermediate” (Takeda Chemical Industries, Ltd., priority 1981, dated 1984).
Converted amounts (≈) assume the structure as drawn.

Key:
Experiment in all cases: Antibacterial activity, agar dilution method (MIC)
Format in all cases: cell-based
[1] = system: Proteus morganii IFO 3168; details: Morganella morganii, IFO3168, 10^6 CFU/ml, 37° C., 18-20 hours, pH 7.0
Protocol: (§1) The above-mentioned minimum inhibitory concentration (MIC; μg/ml) values were determined by the agar dilution method using the medium mentioned below. The inoculum size was one loopful with a viable count of 10^6 CFU/ml. Incubation was performed at 37° C. for 18-20 hours. Medium: glucose 3%, sodium glutamate 0.5%, K2 HPO4 0.05%, MgSO4.7H2 O 0.05%, KCl 0.05%, yeast extract (Difco) 0.05%, Casamino acid 0.02%, agar 1.5% (pH 7.0).

[2] = system: Bacillus subtilis PCI 219; details: PCI219, 10^6 CFU/ml, 37° C., 18-20 hours, pH 7.0
Protocol: as §1

[3] = system: Proteus vulgaris IFO 3045; details: IFO3045, 10^6 CFU/ml, 37° C., 18-20 hours, pH 7.0
Protocol: as §1

[4] = system: Proteus vulgaris IFO 3988; details: IFO3988, 10^6 CFU/ml, 37° C., 18-20 hours, pH 7.0
Protocol: as §1

[5] = system: Escherichia coli NIHJ JC-2; details: NIHJJC2, 10^6 CFU/ml, 37° C., 18-20 hours, pH 7.0
Protocol: as §1

MIC [1]: 3 to 12 µg/mL (≈ 12.2 to 48.9 µM)
MIC [2]: 6 to 24 µg/mL (≈ 24.5 to 97.9 µM)
MIC [3]: 0.6 to 2.4 µg/mL (≈ 2.45 to 9.79 µM)
MIC [4]: 1.6 to 4.8 µg/mL (≈ 6.52 to 19.6 µM)
MIC [5]: 3 to 12 µg/mL (≈ 12.2 to 48.9 µM)
SMILES: C[C@@H](N)C(=O)NC(C(=O)O)C1CC(O)NC1=O (stereo partly drawn) [D-Alanyl-2-(5-hydroxy-2-oxopyrrolidin-3-yl)glycine]
